From patent US9239334B2, “Fatty acid C16: 1N7-palmitoleate a lipokine and biomarker for metabolic status” (PRESIDENT AND FELLOWS OF HARVARD COLLEGE, priority 2008, dated 2016)

Key:
SCD-1 protein = assay: Immunoblotting of Flag-tagged SCD-1 in hepatocytes; assay type: cell-based; settings: CMV promoter construct
From the text: FIG. 3F presents data from the immunoblotting of Flag-tagged SCD-1 in hepatocytes treated with control, palmitate and palmitoleate. Anti-tubulin blot was used as loading control. The observations reported herein also raised the possibility that C16:1n7-palmitoleate might be the lipid species responsible, at least in part, for the metabolic activities linked to adipose tissue FABPs. […] Because palmitoleate is nearly ten-times more abundant in the plasma of FABP^−/− mice than is AA (FIG. 2C), it is most likely accounts for the suppression of SCD-1 under physiologically relevant conditions. The effects of palmitoleate on the levels of SCD-1 protein, which is known to have a very short half-life (Heinemann & Ozols, 68 Prostaglandins Leukot. Essent. Fatty Acids 123-33 (2003)), were also examined. […] Maeda et al., 2005.

[1] = tested on: AKT phosphorylation in C2C12 myotubes; assay: Insulin-stimulated AKT phosphorylation in C2C12 myotubes; assay type: cell-based
Description: Values of bar plot were determined by phospho-AKT ELISA and corresponding immunoblotting results are shown as Insets.
The bottom panel is the corresponding immunoblotting of total and phosphorylated AKT in cells treated with pooled lipids.
To investigate whether plasma lipids also played a role in regulating muscle insulin action, differentiated C2C12 myotubes were treated with lipid extracts from each genotype and the insulin-stimulated AKT phosphorylation determined using an ELISA system.
The effect of C16:1n7-palmitoleate on muscle insulin signaling was explored by pre-treating C2C12 myotubes with either palmitate or palmitoleate overnight and then stimulating the cells with insulin. […] Conversely, C16:1n7-palmitoleate had little effect on its own in this in vitro setting (FIG. 3G). […]
(§1) Samples of 200 μl serum were collected using heparin-coated glass tubes and spun at 13,000 g in a microcentrifuge to separate the plasma. […] Tissue protein lysates was separated with SDS-PAGE gels and phosphorylated or total proteins were detected with the following antibodies: phospho AKT Serine 473, AKT, insulin receptor, phospho-tyrosine (Santa Cruz Biotech.); IRS-1 and IRS-2 (Upstate); phospho-GSK and GSK (Cell Signaling Tech.); phospho-insulin receptor from (Calbiocbem). […]

[2] = tested on: insulin receptor signaling in muscle tissue; assay: Insulin signaling in muscle of lipid-infused mice (immunoblotting); assay type: in vivo; settings: fatty acid:palmitoleate infusion 3.3 μl/min
From the text: FIGS. 7A-7G show data on the regulation of insulin signaling and glucose metabolism by palmitoleate. FIG. 7A is the basal and insulin-stimulated phosphorylation of insulin receptor (IR), insulin receptor substrate-1 (IRS-1) and -2 (IRS-2) and AKT in liver of mice infused with vehicle (Veh), TG:palmitoleate (C16:1n7) or TG:palmitate (C16). Representative blots are shown and quantifications on the right are averaged results of three mice in each treatment group. […] Representative blots are shown and quantifications on the right are averaged results of three mice in each treatment group.
The left panel presents the insulin-stimulated phosphorylation of insulin receptor and AKT in liver of mice infused with vehicle or palmitoleate. […] Mice were infused with vehicle or palmitoleate at 3.3 μl/min for six hrs, and insulin (1 U/Kg) was injected through the infusing tubing. Three minutes after insulin injection, tissues were collected and immunoblotting analyses were performed.
The present invention also provides for the regulation of insulin action by increased circulating palmitoleate. To study whether palmitoleate regulates systemic metabolic responses, lipid infusions were administered in conscious mice. Lipid infusion has been used widely to investigate the relationship between plasma FFAs and insulin resistance, but almost all studies using this protocol utilized preparations of natural lipid products containing a variety of fatty acids. Kim et al., 114 J. Clin. Invest. 823-27 (2004); Kim et al., 277 J. Biol. Chem. 32915-22 (2002); Yu et al., 277 J. Biol. Chem. 50230-36 (2002). […]
as §1

CCCCCC/C=C\CCCCCCCC(=O)O [palmitoleate, C16:1n7-palmitoleate]
Flag-tagged SCD-1 protein level (SCD-1 protein): significantly increased SCD-1 protein degradation
insulin-stimulated AKT phosphorylation ([1]; C2C12 myotubes pre-treated with fatty acid overnight, then insulin): little effect
palmitate-induced reduction in insulin-stimulated AKT phosphorylation ([1]; co-treated with both palmitate and palmitoleate): rescued
muscle insulin signaling (insulin receptor and AKT activation) [2]: enhanced
